Laboratory results from article PMC6104039 (Nature Communications, 2018).
Values joined by “and” are separate entries in the source; they are usually repeats but may differ in a detail not shown here. Equal entries are not always repeated. “Also recorded” adds a separate entry of the source.

How the values were obtained:
[1] = Detection of P053-phosphate in plasma of dosed mice, LC-MS/MS; format: in vivo; conditions: 5 mg/kg/day for 6 weeks
Procedure: LC-MS/MS was performed on a TSQ Quantum Access triple quadrupole mass spectrometer in positive ion mode, coupled to an Accela UPLC system (Thermo Scientific). Extracts (20 μL) were separated on a 2 × 100 mm Eclipse XDB-C8 column with 1.8 μm particle size (Agilent Technologies), using a 7.5 min binary HPLC gradient: 0 min, 70% B ([…]); 1.5 min, 70% B; 3.5 min, 95% B; 4 min, 95% B; 4.5 min, 70% B; 7.5 min 70% B. Mobile phase A: 2 mM ammonium formate/1% formic acid in water; mobile phase B: 1 mM ammonium formate/1% formic acid in methanol. The flow rate was 0.4 mL min^−1, increasing to 0.5 mL min^−1 from 5–7 min, and column oven 30 °C. […] Visualisation and quantification of peaks was performed using Thermo Fisher’s XCalibur software v2.2.
Supplementary Figure 8. P053 is not phosphorylated in situ or in vivo. (a-b) HEK293 cells […]
LC-MS/MS analysis. Chromatograms for (a) FTY720 and its phosphate, and (b) P053 and its putative phosphate are shown. […]
mg/kg/day for 6 weeks, corresponding to a plasma concentration of ~300 nM. No peak is […]
(1 picture or pasted object on this page, not shown here)

[2] = test system: adipose tissue; test: Ceramide and SM species in epididymal adipose tissue; format: in vivo, mice; conditions: Chow + P053, individual values
Procedure: Male C57BL6/J mice were obtained from the Animal Resources Centre in Perth (WA, Australia). Mice were housed at 22 ± 1 °C with a controlled 12:12 h light-dark cycle and had ad libitum access to water and either chow (8% calories from fat) or HFD (45% calories from fat)[66] for 4–6 weeks. […] Treatment was commenced at the same time as mice were randomised to dietary groups. The experiments were approved by the UNSW animal care and ethics committee (ACEC 15/48B), and followed guidelines issued by the National Health and Medical Research Council of Australia.
Lipids were extracted from frozen tissue samples or cells using a two-phase procedure with methyl-tert-butyl ether (MTBE)/methanol/water (10:3:2.5, v/v/v)[67]. Frozen tissue samples (~20 mg) were homogenized in 0.2 mL methanol containing 0.01% butylated hydroxytoluene (BHT), using a Precellys 24 homogenizer and Cryolys cooling unit (Bertin Technologies) with CK14 (1.4-mm ceramic) beads. The homogenates were spiked with an internal standard mixture comprising 5 nmole 19:0/19:0 phosphatidylcholine and 2 nmole each of 17:0/17:0 phosphatidylethanolamine, 17:0/17:0 phosphatidylserine, 17:0/17:0 d5-diacylglycerol, 17:0/17:0 phosphatidylglycerol, 14:0/14:0/14:0/14:0 cardiolipin, 18:1/12:0 SM, 18:1/17:0 ceramide, 18:1/12:0 glucosylceramide, 18:1/12:0 lactosylceramide, 18:1/12:0 sulfatide (all from Avanti Polar Lipids, USA), and 17:0/17:0/17:0 TAG (Cayman Chemical, USA), then transferred to 10 mL screw cap glass tubes. The homogenization tubes containing beads were then washed with another 0.3 mL methanol, and this wash was combined with the first methanol extract, after which 1.7 mL MTBE was added and the samples were sonicated in an ice-cold sonicating water bath (Thermoline Scientific, Australia) for 30 min. Phase separation was induced by addition of 417 µL of mass spectrometry-grade water followed by vortexing and centrifugation at 1000 × g for 10 min. The upper organic phase was collected into 5 mL glass tubes. The lower phase was re-extracted by adding 1 mL MTBE, 300 μL methanol, and 250 μL water. The organic phases were combined in the 5 mL glass tubes and dried under vacuum in a Savant SC210 SpeedVac (Thermo Scientific), then reconstituted in 500 μL methanol and stored at −20 °C until analysis.
Lipidomic profiling was performed on a QExactive Plus mass spectrometer with heated electrospray ionization (HESI) probe and a Dionex UltiMate 2000 LC pump (Thermo Fisher Scientific). Extracts were resolved on a 2.1 × 100 mm Waters Acquity C18 UPLC column (1.7 µm […]), using a binary gradient in which mobile phase A consisted of acetonitrile:water (60:40), 10 mM ammonium formate, 0.1% formic acid; and mobile phase B was isopropanol:acetonitrile (90:10), 10 mM ammonium formate, 0.1% formic acid[68]. The flow rate was 260 µL/min and column oven 55 °C. Data was acquired in full scan/data-dependent MS^2 mode (full scan resolution 70,000 FWHM, scan range 400–1200 m/z). The ten most abundant ions in each cycle were subjected to MS^2 using an isolation window of 1.4 m/z, collision energy 30 eV, resolution 17,500, maximum integration time 110 ms and dynamic exclusion window 10 s. An exclusion list of background ions was used based on a solvent blank. LipidSearch v4.1.30 software (ThermoFisher Scientific) was used for chromatogram alignment, peak identification and integration. Each lipid peak was manually verified for column elution time and characteristic fragment ions. Data were then exported to an Excel spreadsheet for normalisation of each lipid to its class-specific internal standard, and lipid concentrations were calculated relative to the internal standard.

C[C@@](N)(CO)CCc1ccc(OCc2ccc(Cl)c(Cl)c2)cc1 [P053, (S)-2-amino-4-(4-(3,4-dichlorobenzyloxy)phenyl)-2-methylbutan-1-ol]
phosphate of the compound in plasma of mice [1]: only background signal is detected; also recorded: not detected | Ceramide 18:1/16:0 content of white adipose tissue ([2]; raw data Fig 3l): 10.929 and 4.227 and 17.193 and 8.156 and 14.726 and 6.210 and 17.172 and 6.636 and 12.272 and 15.061 | Ceramide 18:1/18:0 content of white adipose tissue ([2]; raw data Fig 3l): 2.114 and 0.846 and 3.339 and 1.520 and 2.375 and 1.130 and 3.918 and 1.468 and 2.718 and 2.056 | Ceramide 18:1/20:0 content of white adipose tissue ([2]; raw data Fig 3l): 1.814 and 0.867 and 3.626 and 1.453 and 2.395 and 1.178 and 2.617 and 1.217 and 2.593 and 1.998 | Ceramide 18:1/22:0 content of white adipose tissue ([2]; raw data Fig 3l): 4.127 and 2.201 and 7.564 and 3.535 and 5.536 and 3.049 and 7.800 and 3.557 and 5.828 and 4.572 | Ceramide 18:1/24:0 content of white adipose tissue ([2]; raw data Fig 3l): 6.125 and 3.020 and 12.234 and 6.320 and 9.940 and 4.064 and 14.430 and 5.790 and 10.017 and 7.844 | Ceramide 18:1/24:1 content of white adipose tissue ([2]; raw data Fig 3l): 10.504 and 6.110 and 22.417 and 11.780 and 19.731 and 7.603 and 26.592 and 10.551 and 18.107 and 16.532 | Ceramide 18:2/18:0 content of white adipose tissue ([2]; raw data Fig 3l): 1.183 and 0.312 and 1.256 and 0.618 and 1.358 and 0.382 and 1.268 and 0.527 and 0.931 and 1.219 | Ceramide 18:2/22:0 content of white adipose tissue ([2]; raw data Fig 3l): 2.177 and 0.918 and 3.608 and 1.721 and 2.577 and 1.375 and 2.989 and 1.482 and 2.309 and 2.564 | Ceramide 18:2/24:0 content of white adipose tissue ([2]; raw data Fig 3l): 4.508 and 1.750 and 7.166 and 3.688 and 5.287 and 2.715 and 7.269 and 3.296 and 4.451 and 6.052 | Ceramide 18:2/24:1 content of white adipose tissue ([2]; raw data Fig 3l): 4.820 and 2.648 and 9.228 and 4.871 and 7.660 and 3.147 and 9.518 and 3.932 and 5.805 and 6.812 | SM 34:1 content of white adipose tissue ([2]; raw data Fig 3m): 276.61 and 66.44 and 226.46 and 212.93 and 276.78 and 111.51 and 327.37 and 118.77 and 188.15 and 267.47 | SM 34:2 content of white adipose tissue ([2]; raw data Fig 3m): 23.85 and 2.33 and 6.66 and 4.19 and 4.83 and 3.15 and 5.28 and 2.34 and 3.58 and 6.77 | SM 36:1 content of white adipose tissue ([2]; raw data Fig 3m): 33.66 and 9.97 and 25.23 and 24.39 and 28.26 and 12.44 and 31.61 and 15.13 and 21.89 and 30.09 | SM 36:2 content of white adipose tissue ([2]; raw data Fig 3m): 12.60 and 1.84 and 8.68 and 8.41 and 12.18 and 3.45 and 12.76 and 4.74 and 5.44 and 12.73 | SM 38:1 content of white adipose tissue ([2]; raw data Fig 3m): 22.37 and 7.77 and 26.08 and 17.58 and 21.03 and 10.59 and 19.70 and 11.77 and 20.28 and 19.73 | SM 38:2 content of white adipose tissue ([2]; raw data Fig 3m): 5.83 and 1.41 and 5.52 and 4.51 and 5.60 and 2.81 and 4.44 and 2.01 and 3.84 and 6.42 | SM 40:1 content of white adipose tissue ([2]; raw data Fig 3m): 44.87 and 18.02 and 56.10 and 41.83 and 53.17 and 20.49 and 52.33 and 23.88 and 40.81 and 43.57 | SM 40:2 content of white adipose tissue ([2]; raw data Fig 3m): 12.98 and 4.14 and 11.80 and 8.16 and 10.55 and 6.16 and 10.26 and 5.10 and 7.07 and 11.44 | SM 42:1 content of white adipose tissue ([2]; raw data Fig 3m): 28.12 and 11.04 and 39.22 and 23.51 and 29.01 and 11.65 and 31.95 and 14.81 and 26.21 and 27.56 | SM 42:2 content of white adipose tissue ([2]; raw data Fig 3m): 81.27 and 33.26 and 95.54 and 83.35 and 95.85 and 36.01 and 109.30 and 44.61 and 71.06 and 85.15 | SM 42:3 content of white adipose tissue ([2]; raw data Fig 3m): 22.64 and 7.14 and 18.55 and 16.77 and 22.11 and 8.66 and 22.41 and 8.50 and 11.09 and 21.29
